Results: patent publication US8314079B2, “Hyaluronic acid oligosaccharide fractions and drugs containing the same” (Seikagaku Corporation, priority 2000, dated 2012)

Key:
SD male rats [1] = test: Gastric ulcer caused by arrest by water immersion in rats; assay type: in vivo, rat
Experimental: A test substance was dissolved in carboxymethylcellulose (CMC) to obtain a test solution for administration. The concentration was determined depending on the dose mentioned below so that the volume of the solution to be administered should become 10 mL/kg.
Moreover, as a positive control solution, a conventional agent for treating gastritis and gastric ulcer (teprenone, geranylgeranylacetone, trade name: Selbex, Eisai) dissolved in CMC was used. The concentration was determined so that the dose and the volume of the solution to be administered should become 1 mg/kg (clinical dose) and 10 mL/kg, respectively. As a negative control solution, 0.5% CMC was used.
SD male rats of 5-week old were divided into a “negative control solution” administered group (n=8), “HA4 4 mg/kg” administered group (n=8), “HA4 20 mg/kg” administered group (n=8), “HA4 100 mg/kg” administered group (n=8) and “positive control solution” administered group (n=8).
The rats of the groups were starved from 16:00 of the day before the first administration day, orally administered with each of the aforementioned solutions at 8:00 of the next day and arrested by water immersion. The arrest by water immersion was continued until 8:00 of the next day (24 hours). In the course of the arrest, each solution was administered in the same manner as the first administration at 16:00 and 24:00.
Then, the rats were dissected, and the stomachs were extracted. The extracted stomachs were expanded by injection of 10% buffered formalin to smoothen the holds and fixed. Then, the blood adhering to walls of stomachs was removed by washing with water.
The area ratio of ulcerous portion degenerated in a dark brown color (ulcer area/glandular stomach area) was measured by using an image analysis apparatus (Image-Pro PLUS™ Version 3.0.1, produced by Media Cybernetics). The symbols * and ** in FIG. 48 indicate significant differences with p<0.05 and p<0.01, respectively (Williams multiple range test).

SD male rats [2] = test: Carbon tetrachloride hepatopathy model; assay type: in vivo, rat
Experimental: A test substance was dissolved in physiological saline to obtain a test solution for administration. The concentration was determined depending on the dose mentioned below so that the volume of the solution to be administered should become 5 mL/kg.
Moreover, as a positive control solution, FAD (flavine adenine dinucleotide, Wakamoto Pharmaceutical), of which effect on the carbon tetrachloride hepatopathy model had been reported (Yakubutsu Ryouhou (Pharmacotherapy), vol. 9, Special edition, pp. 46-53), was used at a dose of 10 mg/kg. Further, physiological saline was used as a negative control solution.
SD male rats of 5-week old were divided into a “negative control solution” administered group (n=8), “HA4 2 mg/kg” administered group (n=8), “HA4 10 mg/kg” administered group (n=8), “HA4 50 mg/kg” administered group (n=8), “positive control solution” administered group (n=8) and “normal” group (n=8).
The rats of the groups were starved from 16:00 of the day before the first administration day, orally administered with 100 mg/kg of carbon tetrachloride (CCl4) before 8:00 of the next day and then intraperitoneally administered with each of the aforementioned solutions at 8:00. Thereafter, the rats were bred with maintaining starvation, and administered with each of the aforementioned solutions in the same manner as the first administration at 16:00 and 24:00. The rats were fed after the administration at 24:00 and dissected at 8:00 on the next day.
After the dissection, blood was collected, and GOT activity and leucocyte count were measured. The GOT activity was measured by using a clinical chemistry autoanalyzer (COBAS MIRA S, Nippon Roche), and the leucocyte count was measured by using an automated hematology analyzer (Sysmex K-2000, produced by Sysmex).
IL-10 in peripheral blood was measured by using IL-10 Rat ELISA (produced by ENDOGEN). IL-8 was measured by using Panatest A Series Rat CINC-1 (IL-8) (Panapharm Laboratories). The symbol of ** in FIGS. 51 and 52 indicates presence of significant difference with p<0.01 (Williams multiple range test).

PC-12 cells = test: Cell death (apoptosis) of PC-12 cells in culture broth without blood serum, trypan blue staining; assay type: cell-based; conditions: 100 ng/mL, no blood serum, 24 hours
Experimental: Therefore, each of ΔHA2, HA4, ΔHA4, HA6, ΔHA6, HA8, HA10, HA12, HA84, L4 and L4L4 was added to a culture broth containing PC-12 cells at a concentration of 100 ng/mL (containing no blood serum), 24 hours after, the cells were stained with trypan blue, and a ratio of the number of viable cells (cells not stained with trypan blue) to the total cell number was calculated.

Balb/c mice = test: Concanavalin A hepatopathy model; assay type: in vivo, mouse; conditions: for average of GPT / average of GOT: 24 hours after ConA 15 mg/kg; for average of GPT: negative control about 5600; for average of GOT: negative control about 6000; for visual inspection of the livers (degree of hepatopathy): compared with negative and positive control solution groups
Experimental: The preparation, concentration, dose, volume to be administered etc. of the test solution are the same as those used in Experiment 1.
As a positive control solution, Stronger Neo-Minophagen C (Minophagen Pharmaceutical) was used at a dose of 5 mg/kg. This dose is the maximum clinical dose of the drug. Moreover, physiological saline was used as a negative control solution.
Balb/c mice of 8-week old were divided into a “negative control solution” administered group (n=12), “HA4 2 mg/kg” administered group (n=12), “HA4 10 mg/kg” administered group (n=12), “HA4 50 mg/kg” administered group (n=12), “positive control solution” administered group (n=12) and “normal” group (n=8).
Concanavalin A (ConA, Sigma) was injected via the caudal vein at a dose of 15 mg/kg. Then, each of the aforementioned solutions was administered via the caudal vein. Thereafter, the mice were bred for 24 hours.
The whole blood was collected from the abdominal aorta, and the GPT activity and GOT activity were measured by a clinical chemistry autoanalyzer (COBAS MIRA S, Nippon Roche). Further, the liver was extracted, and appearance of the liver was evaluated by visual inspection.

[3] = HA4 2, 10, 50 mg/kg intraperitoneal, dose dependence

## CC(=O)N[C@H]1[C@H](O[C@H]2[C@H](O)[C@@H](O)[C@H](O[C@H]3[C@H](O)[C@@H](CO)OC(O)[C@@H]3NC(C)=O)O[C@@H]2C(=O)O)O[C@H](CO)[C@@H](O)[C@@H]1O[C@@H]1O[C@H](C(=O)O)[C@@H](O)[C@H](O)[C@H]1O.[Na].[Na] (stereo partly drawn) [HA4, sodium β-D-glucopyranosyluronate-(1→3)-2-acetamido-2-deoxy-β-D-glucopyranosyl-(1→4)-(sodium β-D-glucopyranosyluronate)-(1→3)-2-acetamido-2-deoxy-D-glucopyranose]
SD male rats [1]; 20 mg/kg oral, compared with positive control solution (teprenone 1 mg/kg)
  area ratio of ulcerous portion (ulcer area/glandular stomach area): lower than that observed for the positive control solution group
SD male rats [1]; 100 mg/kg oral, compared with positive control solution (teprenone 1 mg/kg)
  area ratio of ulcerous portion (ulcer area/glandular stomach area): lower than that observed for the positive control solution group
SD male rats [1]; all HA4 groups (4, 20, 100 mg/kg, oral, three administrations), compared with negative control solution group
  area ratio of ulcerous portion (ulcer area/glandular stomach area): significantly reduced
SD male rats [2]; HA4 50 mg/kg administered group, intraperitoneal, compared with negative control solution group, p<0.05
  GOT activity: significant reduction
SD male rats [2]; HA4 50 mg/kg, compared with negative control solution group, p<0.01
  blood IL-10 level: significantly higher
SD male rats [2]; [3]
  blood IL-8 level: decreased in a manner dependent on the dose of HA4
  blood IL-10 level: increased in a manner dependent on the dose of HA4
SD male rats [2]; HA4 groups compared with FAD 10 mg/kg (positive control)
  peripheral leucocyte count: decreased compared even with FAD
SD male rats [2]; all HA4 groups (2, 10, 50 mg/kg intraperitoneal), compared with negative control solution group
  peripheral leucocyte count: significant decrease
PC-12 cells
  suppression of cell death (ratio of the number of viable cells to the total cell number): more notably suppressed the cell death
Balb/c mice; 10 mg/kg via the caudal vein
  average of GPT: about 2200 I.U./L
  average of GOT: about 2000 I.U./L
Balb/c mice; 10 mg/kg
  visual inspection of the livers (degree of hepatopathy): lower degree of hepathopathy
Balb/c mice; 50 mg/kg via the caudal vein
  average of GPT: about 1200 I.U./L
  average of GOT: about 1000 I.U./L
Balb/c mice; 50 mg/kg
  visual inspection of the livers (degree of hepatopathy): lower degree of hepathopathy
